Laboratory results published in US20260042764A1, “COMPOSITIONS AND METHODS FOR INHIBITION OF KRAS” (TheRas, Inc., priority 2022, published 2026).

How the values were obtained:
[1] = biological target: T1, Avi-KRAS G12D (2-169) GTP/RAF1 RBD-3xFLAG (51-131) (Homo sapiens, UniProt P01116, G12D); assay: Raf1-KRAS G12D-GTP disruption HTRF assay (Biological Example 3); assay type: binding; conditions: KRAS G12D, GTP-loaded
T1 construct: Avi-KRAS G12D (2-169)
In short: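 Each KRAS-GTP/RAF1 RBD complex at 50 nM, with 75 nM 3xFLAG-RAF1 RBD (51-131)-Avi, in 50 mM Tris pH 7.5, 100 mM NaCl, 5 mM MgCl2, 0.1% BSA, 0.01% Tween 20, 10% DMSO. Compounds titrated from 30 μM, 10-point 3x series; 1 h at room temperature with shaking. HTRF read, activity as percent of DMSO.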

SW620 cells (KRAS G12V) = assay: Cell-based pERK HTRF assay in SW620 cell (Biological Example 4); conditions: Homo sapiens, SW-620, SW620 (KRAS G12V) cells
In short: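 SW620 seeded in RPMI/10% FBS, next day dosed 4 h (top 1 μM, half-log, 9 pts, 0.25% DMSO). Lysed, pERK by d2/Eu cryptate HTRF, 4–24 h RT, 615 nm read.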

[2] = biological target: T2, Avi-KRAS WT (1-169) GppNHp/RAF1 RBD-3xFLAG (52-151) (Homo sapiens, UniProt P01116); assay: Raf1-KRAS WT-GppNHP disruption HTRF assay (Biological Example 1); assay type: binding; conditions: KRAS WT-GppNHp/RAF1 RBD HTRF
T2 construct: Avi-KRAS WT (1-169)
T2 sequence (P01116 1-169 isoform P01116-2): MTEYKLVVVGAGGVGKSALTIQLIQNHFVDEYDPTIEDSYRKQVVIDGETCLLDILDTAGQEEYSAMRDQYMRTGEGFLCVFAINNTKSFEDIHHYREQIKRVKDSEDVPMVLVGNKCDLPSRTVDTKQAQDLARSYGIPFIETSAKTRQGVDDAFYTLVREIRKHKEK
In short: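 Protein mix, 1 h RT, 700 rpm; reagent mix, 1 h RT, 700 rpm; HTRF read. Buffer Tris pH 7.5/NaCl/MgCl2/BSA/Tween, 10% DMSO. Output % activity, DMSO = 100%.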

T1 sequence (P01116 2-169 isoform P01116-2 G12D): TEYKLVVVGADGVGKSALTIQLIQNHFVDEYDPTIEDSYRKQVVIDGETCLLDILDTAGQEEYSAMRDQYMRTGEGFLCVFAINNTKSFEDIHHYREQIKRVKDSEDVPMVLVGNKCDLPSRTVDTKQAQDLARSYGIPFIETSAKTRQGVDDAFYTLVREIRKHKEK

Row | Compound | IC50 [1] [nM] | IC50 (SW620 cells (KRAS G12V)) [nM] | IC50 (SW620 cells (KRAS G12V); pERK HTRF) [nM] | IC50 [2] [nM]
1 | CCN(c1nc(OC[C@@]23CCCN2C[C@H](F)C3)nc2c(F)c(-c3ccc(F)c4sc(N)c(C#N)c34)c(C(F)(F)F)cc12)[C@@H]1CC(=O)N(C2CC2)C1 [Compound 537] | ≤ 100 | < 100 | < 100 | < 100
2 | Cc1c(C(=O)N(C)C)nn2c1CN(c1nc(OC[C@@]34CCCN3C[C@H](F)C4)nc3c(F)c(-c4ccc(F)c5sc(N)c(C#N)c45)c(C(F)(F)F)cc13)CC2 [Compound 501] | 100 to 1000 | < 100 | < 100 | 100 to 1000
3 | CCN(c1nc(OC[C@@]23CCCN2C[C@H](F)C3)nc2c(F)c(-c3ccc(F)c4sc(N)c(C#N)c34)c(C(F)(F)F)cc12)[C@H]1C[C@H]2COC(=O)N2C1 (atropisomer, axis not shown; (aS)) [Compound 518, 2-amino-4-((S)-4-(ethyl((6S,7aS)-3-oxotetrahydro-1H,3H-pyrrolo[1,2-c]oxazol-6-yl)amino)-8-fluoro-2-(((2R,7aS)-2-fluorotetrahydro-1H-pyrrolizin-7a(5H)-yl)methoxy)-6-(trifluoromethyl)quinazolin-7-yl)-7-fluorobenzo[b]thiophene-3-carbonitrile] | ≤ 100 | < 100 | < 100 | < 100
4 | CCN(c1nc(OC[C@@]23CCCN2C[C@H](F)C3)nc2c(F)c(-c3ccc(F)c4sc(N)c(C#N)c34)c(C(F)(F)F)cc12)[C@H]1CCN(C(=O)C(C)C)C1 (single isomer, unassigned) [Compound 469] | ≤ 100 | < 100 | < 100 | < 100
